Source: US20260285850A1, “SUBSTITUTED OXAZOLIDINONES AND IMIDAZOLINONES AS HERBICIDES” (FMC CORPORATION, priority 2023, published 2026)

How the values were obtained:
Format in all cases: in vivo
[1] = tested on: barnyardgrass (Echinochloa crus-galli); assay: Test A preemergence soil spray, visual injury rating 0-100; details: 10 days, 0 = no effect, 100 = complete control
How it was run: (§1)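 Grow plants in loam soil blended with sand. Apply formulated compound (non-phytotoxic solvent, surfactant) as a directed soil spray before emergence, or to plants at the one- to two-leaf stage after emergence. Hold in greenhouse 10 days, then rate injury visually versus untreated controls on a 0-100 scale.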

[2] = tested on: blackgrass (Alopecurus myosuroides); assay: as above; details: 10 days, 0 = no effect, 100 = complete control
How it was run: as §1

corn (Zea mays) [3] = assay: as above; details: 10 days, 0 = no effect, 100 = complete control
How it was run: as §1

[4] = tested on: green foxtail (Setaria viridis); assay: as above; details: 10 days, 0 = no effect, 100 = complete control
How it was run: as §1

kochia (Bassia scoparia) [5] = assay: as above; details: 10 days, 0 = no effect, 100 = complete control
How it was run: as §1

[6] = tested on: oat, wild (wild oat, Avena fatua); assay: as above; details: 10 days, 0 = no effect, 100 = complete control
How it was run: as §1

[7] = tested on: palmer (palmer amaranth, palmer pigweed, Amaranthus palmeri); assay: as above; details: 10 days, 0 = no effect, 100 = complete control
How it was run: as §1

[8] = tested on: ragweed (common ragweed, Ambrosia artemisiifolia); assay: as above; details: 10 days, 0 = no effect, 100 = complete control
How it was run: as §1

soybean (Glycine max) [9] = assay: as above; details: 10 days, 0 = no effect, 100 = complete control
How it was run: as §1

[10] = tested on: wheat (Triticum aestivum); assay: as above; details: 10 days, 0 = no effect, 100 = complete control
How it was run: as §1

[11] = tested on: barnyardgrass (Echinochloa crus-galli); assay: Test A postemergence application, visual injury rating 0-100; details: 10 days
How it was run: as §1

[12] = tested on: blackgrass (Alopecurus myosuroides); assay: as above; details: 10 days
How it was run: as §1

corn (Zea mays) [13] = assay: as above; details: 10 days
How it was run: as §1

[14] = tested on: galium (catchweed bedstraw, Galium aparine); assay: as above; details: 10 days
How it was run: as §1

[15] = tested on: green foxtail (Setaria viridis); assay: as above; details: 10 days
How it was run: as §1

[16] = tested on: horseweed (Erigeron canadensis); assay: as above; details: 10 days
How it was run: as §1

kochia (Bassia scoparia) [17] = assay: as above; details: 10 days
How it was run: as §1

[18] = tested on: oat, wild (wild oat, Avena fatua); assay: as above; details: 10 days
How it was run: as §1

[19] = tested on: palmer (palmer amaranth, palmer pigweed, Amaranthus palmeri); assay: as above; details: 10 days
How it was run: as §1

[20] = tested on: ragweed (common ragweed, Ambrosia artemisiifolia); assay: as above; details: 10 days
How it was run: as §1

[21] = tested on: ryegrass, Italian (italian ryegrass, Lolium multiflorum); assay: as above; details: 10 days
How it was run: as §1

soybean (Glycine max) [22] = assay: as above; details: 10 days
How it was run: as §1

[23] = tested on: wheat (Triticum aestivum); assay: as above; details: 10 days
How it was run: as §1

[24] = tested on: barnyardgrass (Echinochloa crusgalli); assay: Test B flooded paddy test, visual plant response rating 0-100; details: 250 g ai/ha, Flood, applied to paddy water, evaluated after 13 days
How it was run: (§2)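 Plants were grown to the 2-leaf stage, then pots were flooded to 3 cm above the soil and compound was applied directly to the paddy water, with that depth kept throughout.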

[25] = tested on: ducksalad (Heteranthera limosa); assay: as above; details: 250 g ai/ha, Flood, applied to paddy water, evaluated after 13 days
How it was run: as §2

rice (Oryza sativa) = assay: as above; details: 250 g ai/ha, Flood, applied to paddy water, evaluated after 13 days
How it was run: as §2

[26] = tested on: sedge, umbrella (small-flower umbrella sedge, Cyperus difformis); assay: as above; details: 250 g ai/ha, Flood, applied to paddy water, evaluated after 13 days
How it was run: as §2

[27] = 31 g ai/ha, postemergence, 0 = no effect, 100 = complete control
[28] = Postemergence, 125 g ai/ha, 0 is no effect, 100 is complete control

## CC(C)OC(=O)C1=CCC(NC(=O)C2(C)CN(c3cc(F)cc(F)c3)C(=O)O2)C1 (centres unmarked) [Compound 5]
[1]; 31 g ai/ha
  Barnyardgrass plant response rating (0-100): 0
[1]; 125 g ai/ha
  Barnyardgrass plant response rating (0 to 100 scale): 100
[2]; 31 g ai/ha
  Blackgrass plant response rating (0-100): 30
[2]; 125 g ai/ha
  Blackgrass plant response rating (0 to 100 scale): 40
Corn (Zea mays) [3]; 31 g ai/ha
  Corn plant response rating (0-100): 0
Corn (Zea mays) [3]; 125 g ai/ha
  Corn plant response rating (0 to 100 scale): 50
[4]; 31 g ai/ha
  Foxtail, Green plant response rating (0-100): 20
[4]; 125 g ai/ha
  Foxtail, Green plant response rating (0 to 100 scale): 100
Kochia (Bassia scoparia) [5]; 31 g ai/ha
  Kochia plant response rating (0-100): 0
Kochia (Bassia scoparia) [5]; 125 g ai/ha
  Kochia plant response rating (0 to 100 scale): 90
[6]; 31 g ai/ha
  Oat, Wild plant response rating (0-100): 20
[6]; 125 g ai/ha
  Oat, Wild plant response rating (0 to 100 scale): 90
[7]; 31 g ai/ha
  Amaranth, Palmer plant response rating (0-100): 20
[7]; 125 g ai/ha
  Amaranth, Palmer plant response rating (0 to 100 scale): 100
[8]; 31 g ai/ha
  Ragweed plant response rating (0-100): 0
[8]; 125 g ai/ha
  Ragweed plant response rating (0 to 100 scale): 0
Soybean (Glycine max) [9]; 31 g ai/ha
  Soybean plant response rating (0-100): 0
Soybean (Glycine max) [9]; 125 g ai/ha
  Soybean plant response rating (0 to 100 scale): 60
[10]; 31 g ai/ha
  Wheat plant response rating (0-100): 0
[10]; 125 g ai/ha
  Wheat plant response rating (0 to 100 scale): 80
[11]; [27]
  Barnyardgrass plant response rating (0-100): 100
[11]; [28]
  Barnyardgrass plant response rating (0 to 100 scale): 100
[12]; [27]
  Blackgrass plant response rating (0-100): 50
[12]; [28]
  Blackgrass plant response rating (0 to 100 scale): 90
Corn (Zea mays) [13]; [27]
  Corn plant response rating (0-100): 60
Corn (Zea mays) [13]; [28]
  Corn plant response rating (0 to 100 scale): 100
[14]; [27]
  Galium plant response rating (0-100): 80
[14]; [28]
  Galium plant response rating (0 to 100 scale): 80
[15]; [27]
  Foxtail, Green plant response rating (0-100): 30
[15]; [28]
  Foxtail, Green plant response rating (0 to 100 scale): 90
[16]; [27]
  Horseweed plant response rating (0-100): 10
[16]; [28]
  Horseweed plant response rating (0 to 100 scale): 50
Kochia (Bassia scoparia) [17]; [27]
  Kochia plant response rating (0-100): 30
Kochia (Bassia scoparia) [17]; [28]
  Kochia plant response rating (0 to 100 scale): 80
[18]; [27]
  Oat, Wild plant response rating (0-100): 90
[18]; [28]
  Oat, Wild plant response rating (0 to 100 scale): 90
[19]; [27]
  Amaranth, Palmer plant response rating (0-100): 40
[19]; [28]
  Amaranth, Palmer / Pigweed, Palmer plant response rating (0 to 100 scale): 50
[20]; [27]
  Ragweed plant response rating (0-100): 50
[20]; [28]
  Ragweed plant response rating (0 to 100 scale): 70
[21]; [27]
  Ryegrass, Italian plant response rating (0-100): 60
[21]; [28]
  Ryegrass, Italian plant response rating (0 to 100 scale): 90
Soybean (Glycine max) [22]; [27]
  Soybean plant response rating (0-100): 60
Soybean (Glycine max) [22]; [28]
  Soybean plant response rating (0 to 100 scale): 70
[23]; [27]
  Wheat plant response rating (0-100): 90
[23]; [28]
  Wheat plant response rating (0 to 100 scale): 90
[24]
  Plant response rating, Barnyardgrass (0 to 100 scale, 0 is no effect and 100 is complete control): 65
[25]
  Plant response rating, Ducksalad (0 to 100 scale, 0 is no effect and 100 is complete control): 80
Rice (Oryza sativa)
  Plant response rating, Rice (0 to 100 scale, 0 is no effect and 100 is complete control): 20
[26]
  Plant response rating, Sedge, Umbrella (0 to 100 scale, 0 is no effect and 100 is complete control): 95
